Test results from publication PMC6100724, “Proteome‐wide analysis of phospho‐regulated PDZ domain interactions” (Molecular Systems Biology, 2018).
One block for each sequence: values may come before it.

How the values were obtained:
Scribble PDZ1 [1] = target: T1, Scribble PDZ1 (Homo sapiens, UniProt Q14160); assay: Pre-phosphorylation ProP-PD: wild-type library treated with RPS6KA1 or not, selection with NGS; assay type: binding; details: mean of the two selections, bait Scribble PDZ1; for Phosphorylated selection Mean fraction: Pre-phosphorylation with RPS6KA1; for Unphosphorylated selection Mean fraction: Without Kinase
T1 construct: human Scribble PDZ1 aa 719–829 in; made in house; host or cells: E. coli BL21 Gold (DE3)
Description: For pre‐phosphorylation of the wild‐type ProP‐PD library, we obtained activated RPS6KA1 (Thermo Fisher). The time and amount of kinase required to phosphorylate the ProP‐PD library were tested in a phosphorylation assay.
(§1) Phage selections were carried out for four rounds following a protocol by Huang and Sidhu (Huang & Sidhu, 2011) with minor modifications. Non‐specific binding phage was removed by pre‐selections against immobilized GST throughout the selection. The selections against the (pre‐)phosphorylated wild‐type library were performed in 50 mM HEPES (pH 7.4) and 150 mM NaCl (HBS) following the same procedure after pre‐phosphorylation of the library.
(§2) • Immobilize proteins (15 μg in 100 μl PBS) in a 96‐well MaxiSorp microtiter plate (NUNC) overnight at 4°C. • Start a 2YT culture of E. coli Omnimax supplemented with 100 μg/ml tetracycline to retain the F pilus epitope. • Block the wells with 200 μl 0.5% BSA in PBS for 2 h at 4°C. • Precipitate naïve phage library (10^11 cfu per selection) or amplified phage pool from the previous round of selection by adding one‐fifth the volume of PEG/NaCl. • Incubate on ice for 10 min, and pellet precipitated phage by centrifugation at 5,300 g for 15 min. Resuspend the phage pellet in 100 μl PBS per selection. • Add 100 μl of phage solution to the GST‐coated pre‐selection wells and incubate for 1 h. • Transfer the phage solution to the immobilized target proteins and allow it to bind for 2 h at 8°C. • Wash the plate four times with 200 μl cold wash buffer (PBS, 0.05% Tween‐20). • Elute bound phage by incubation with 100 μl log phase (0.6–0.8 OD600) E. coli Omnimax for 30 min at 37°C with shaking (200 RPM). • Add 10^12 cfu/ml M13K07 helper phage for hyperinfection of the bacteria and incubate as above for 45 min. • Transfer the bacterial culture to 10 ml 2YT supplemented with 50 μg/ml carbenicillin, 25 μg/ml kanamycin, and 300 μM IPTG and incubate overnight at 37°C while shaking. • Perform phage pool ELISA to monitor the progress of the selection as described previously (Huang & Sidhu, 2011).
• Precipitate the naive wild‐type phage library (as described above, 1.8 × 10^10 cfu phage per selection). • Resuspend the precipitated phage pellets in 100 μl Kinase buffer per selection and add ATP (100 μM final concentration) and RPS6KA1 (500 ng/ml) to the phage solution. In parallel, prepare a negative control where only ATP is added to the phage pool. • Incubate the phosphorylation reaction for 2 h at room temperature. Stop the reaction through PEG/NaCl precipitation (as described above). • Resuspend the phage pool in 100 μl HBS.
During the 4 days of pre‐phosphorylation ProP‐PD selections, the input phage library of each day of selection was subjected to phosphorylation prior to phage selection.
(§3) The naïve library and the enriched phage pools of the third day of selection were amplified and barcoded by PCR and analyzed by NGS as described elsewhere (McLaughlin & Sidhu, 2013; Ivarsson et al, 2014). The reads were demultiplexed using the barcode sequences and filtered by discarding sequences with a Phred quality score under 30. Sequences were mapped to the original library using Bowtie (Langmead et al, 2009) with two mismatches between reads and library sequence. Nucleotide mutations leading to amino acid substitutions were subsequently removed. Cutoff values of NGS counts were assigned for each pool. PWMs were generated based on the remaining peptides (aligned on the C‐termini) using WebLogo (Crooks et al, 2004).

DLG1 PDZ2 = target: T2, DLG1 PDZ2 (Homo sapiens, UniProt Q12959); assay: Phosphomimetic ProP-PD selection with NGS; assay type: binding; details: mean of selections 1-3, bait DLG1 PDZ2
T2 construct: human DLG1 PDZ2 aa 311–407 in a modified pRSET vector 40; made in house; host or cells: E. coli BL21 Gold (DE3)
Description: as §1, §2, §3
(§4) However, there was no significant correlation of the actual read counts (selection “strength”) and the initial representation in the library, reflecting the strong selection during phage display (wt+mimetic: P‐value: 0.49, ρ = −0.08, mimetic only: P‐value: 0.069, ρ = −0.2, wt only: P‐value: 0.12, ρ = 0.17). Consequently, the amount of reads for each binder after phage display is not a function of the amount of input reads in the naïve library and no modeling based on the input library frequencies to score the interactions is necessary. To allow for comparison between replicate selections, we used the fraction of NGS reads within a certain set, instead of the absolute number of NGS reads, as the absolute numbers differ between different NGS batches.

DLG1 PDZ1 = assay: Phosphomimetic ProP-PD selection with NGS; assay type: binding, human; details: mean of selections 1-3, bait DLG1 PDZ1; for Mean fraction #NGS counts mimetic peptide / total count selection: phosphomimetic peptide; for Mean fraction #NGS counts wt peptide / total counts selection: wild type peptide
Description: as §1, §2, §3, §4

DLG1 PDZ3 = assay: Phosphomimetic ProP-PD selection with NGS; assay type: binding, human; details: mean of selections 1-3; bait DLG1 PDZ3
Description: as §1, §2, §3, §4

Scribble PDZ3 = assay: Phosphomimetic ProP-PD selection with NGS; assay type: binding, human; details: mean over selections 1-3; bait Scribble PDZ3
Description: as §1, §2, §3, §4

Scribble PDZ1 [2] = target: T1, Scribble PDZ1; assay: Phosphomimetic ProP-PD selection with NGS; assay type: binding; details: bait Scribble PDZ1; mean of selections 1-3
Description: as §1, §2, §3, §4

Scribble PDZ2 = assay: Phosphomimetic ProP-PD selection with NGS; assay type: binding, human; details: bait Scribble PDZ2; mean of selections 1 and 2 (selection 3 empty)
Description: as §1, §2, §3, §4

T2 sequence (Q12959 311-407): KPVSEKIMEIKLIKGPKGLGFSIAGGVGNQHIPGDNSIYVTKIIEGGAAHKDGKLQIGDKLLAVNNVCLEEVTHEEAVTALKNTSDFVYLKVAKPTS
T1 sequence (Q14160 719-829): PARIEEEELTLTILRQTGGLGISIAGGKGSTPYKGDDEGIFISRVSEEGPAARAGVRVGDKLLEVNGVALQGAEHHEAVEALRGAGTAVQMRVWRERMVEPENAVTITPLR

Phosphorylated selection Mean fraction (Scribble PDZ1 [1]): 0.0002294
Unphosphorylated selection Mean fraction (Scribble PDZ1 [1]): 0.0001256
Sequence: DKESFLTWL [YAP1]

Mean fraction #NGS counts mimetic peptide / total count selection (DLG1 PDZ2; phosphomimetic peptide): 0.002811
Sequence: EIKLKTSFF
Mean fraction #NGS counts mimetic peptide / total count selection (DLG1 PDZ1): 0.06227
Mean fraction #NGS counts mimetic peptide / total count selection (DLG1 PDZ3): 0.01375
Mean fraction #NGS counts mimetic peptide / total count selection (Scribble PDZ3): 6.807e-5

Mean fraction #NGS counts mimetic peptide / total count selection (DLG1 PDZ2): 0.0001104
Sequence: GGKRKEELV
Mean fraction #NGS counts mimetic peptide / total count selection (DLG1 PDZ1): 3.0718e-6
Mean fraction #NGS counts mimetic peptide / total count selection (DLG1 PDZ3): 0
Mean fraction #NGS counts mimetic peptide / total count selection (Scribble PDZ3): 0

Mean fraction #NGS counts wt peptide / total counts selection (DLG1 PDZ2): 0.3203
Sequence: GGKRKETLV
Mean fraction #NGS counts wt peptide / total counts selection (DLG1 PDZ1): 0.3267
Mean fraction #NGS counts wt peptide / total counts selection (DLG1 PDZ3): 0.06478
Mean fraction #NGS counts wt peptide / total counts selection (Scribble PDZ3): 6.172e-5

Sequence: KGRAKGEPV
Mean fraction #NGS counts mimetic peptide / total count selection (DLG1 PDZ3): 0

Sequence: KGRAKGTPV
Mean fraction #NGS counts wt peptide / total counts selection (DLG1 PDZ3): 0.0008774

Mean fraction #NGS counts mimetic peptide / total count selection (DLG1 PDZ2; phosphomimetic peptide): 0.0001273
Mean fraction #NGS counts mimetic peptide / total count selection (Scribble PDZ1 [2]): 0.0009157
Sequence: KREFIESNV
Mean fraction #NGS counts mimetic peptide / total count selection (DLG1 PDZ1): 2.37e-6
Mean fraction #NGS counts mimetic peptide / total count selection (Scribble PDZ2): 0.003418
Mean fraction #NGS counts mimetic peptide / total count selection (Scribble PDZ3): 0.005112

Mean fraction #NGS counts wt peptide / total counts selection (DLG1 PDZ2; wild type peptide): 0.007809
Mean fraction #NGS counts wt peptide / total counts selection (Scribble PDZ1 [2]): 0.03115
Sequence: KRSFIESNV
Mean fraction #NGS counts wt peptide / total counts selection (DLG1 PDZ1): 0.0007809
Mean fraction #NGS counts wt peptide / total counts selection (Scribble PDZ2): 0.2119
Mean fraction #NGS counts wt peptide / total counts selection (Scribble PDZ3): 0.07707

Phosphorylated selection Mean fraction (Scribble PDZ1 [1]): 1.399e-5
Unphosphorylated selection Mean fraction (Scribble PDZ1 [1]): 1.381e-5
Sequence: KSEPFLTWL [WWTR1]

Phosphorylated selection Mean fraction (Scribble PDZ1 [1]): 6.993e-6
Unphosphorylated selection Mean fraction (Scribble PDZ1 [1]): 4.139e-6
Sequence: LPHSPHSHL [AAAS]

Phosphorylated selection Mean fraction (Scribble PDZ1 [1]): 0.001062
Unphosphorylated selection Mean fraction (Scribble PDZ1 [1]): 0.0007483
Sequence: LPKIKETTV [FRMPD4]

Sequence: PANRRETPV
Mean fraction #NGS counts mimetic peptide / total count selection (DLG1 PDZ1): 3.546e-5
Mean fraction #NGS counts mimetic peptide / total count selection (DLG1 PDZ3): 0.0003587

Sequence: PANRRTTPV
Mean fraction #NGS counts wt peptide / total counts selection (DLG1 PDZ1): 0
Mean fraction #NGS counts wt peptide / total counts selection (DLG1 PDZ3): 0

Phosphorylated selection Mean fraction (Scribble PDZ1 [1]): 0.0009701
Unphosphorylated selection Mean fraction (Scribble PDZ1 [1]): 0.003212
Sequence: PIHSLETSL [ATP2B2]

Phosphorylated selection Mean fraction (Scribble PDZ1 [1]): 0.0003108
Unphosphorylated selection Mean fraction (Scribble PDZ1 [1]): 1.381e-5
Sequence: PLHSLETSL [ATP2B1]

Sequence: RATEPGSGL
Mean fraction #NGS counts mimetic peptide / total count selection (DLG1 PDZ3): 0

Sequence: RATSPGSGL
Mean fraction #NGS counts wt peptide / total counts selection (DLG1 PDZ3): 0.001731

Sequence: RPYRREEEI
Mean fraction #NGS counts mimetic peptide / total count selection (DLG1 PDZ3): 0
Mean fraction #NGS counts mimetic peptide / total count selection (Scribble PDZ3): 0

Mean fraction #NGS counts mimetic peptide / total count selection (DLG1 PDZ2): 0
Mean fraction #NGS counts wt peptide / total counts selection (DLG1 PDZ2): 3.461e-5
Sequence: RPYRRESEI
Mean fraction #NGS counts wt peptide / total counts selection (DLG1 PDZ3): 2.154e-5
Mean fraction #NGS counts wt peptide / total counts selection (Scribble PDZ3): 9.302e-5

Mean fraction #NGS counts mimetic peptide / total count selection (DLG1 PDZ2): 0
Sequence: RQTEYQGVL
Mean fraction #NGS counts mimetic peptide / total count selection (DLG1 PDZ3): 3.59e-6

Mean fraction #NGS counts wt peptide / total counts selection (DLG1 PDZ2): 0.001671
Sequence: RQTSYQGVL
Mean fraction #NGS counts wt peptide / total counts selection (DLG1 PDZ3): 0.008629
